Test results: patent publication US9850283B2, “Macrocyclic inhibitors of the PD-1/PD-L1 and CD80(B7-1)/PD-L1 protein/protein interactions” (BRISTOL-MYERS SQUIBB COMPANY, priority 2013, dated 2017)
Where two headings read alike, the source gives them in different places. Positions of bridges follow the written chain, without caps; N, C: chain ends. Non-standard residues stand in square brackets, D forms with d. Residues, ends and D or L forms follow the SMILES beside them. ξ: configuration not given here. Bip = N[C@@H](Cc1ccc(-c2ccccc2)cc1)C(=O)O; Phe(4-Cl) = N[C@@H](Cc1ccc(Cl)cc1)C(=O)O; Phe(2-Cl) = N[C@@H](Cc1ccccc1Cl)C(=O)O; Pro(4R-NH2) = N[C@H]1CN[C@H](C(=O)O)C1; Bta = N[C@@H](Cc1csc2ccccc12)C(=O)O; hhPhe = N[C@@H](CCCc1ccccc1)C(=O)O; Hyp = O=C(O)[C@@H]1C[C@@H](O)CN1; NMeF = CN[C@@H](Cc1ccccc1)C(=O)O; NMeNle = CCCC[C@H](NC)C(=O)O; NMeA = CN[C@@H](C)C(=O)O; Orn = NCCC[C@H](N)C(=O)O; ξC = NC(CS)C(=O)O; Sar = CNCC(=O)O

Legend:
[1] = target: T1, LK35.2-hPD-L1 cells / PE-labeled PD-1-Ig (Homo sapiens, UniProt Q9NZQ7); assay: LK35.2-hPD-L1 cell binding high-content screening assay; format: cell-based
T1 construct: expressed in transfected cells; host or cells: LK35.2 mouse B cell line
Outline: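 Compound effect on PD-1/PD-L1 binding is measured by imaging cell-associated phycoerythrin signal. Human PD-1-Ig (PE on Ig tag, 1 nM final) is applied with compound to a murine B cell line overexpressing human PD-L1 for 1 h at 37 °C in serum-containing RPMI.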

Human PD-L1/PD-1 = target: T2, Human PD-L1/PD-1 (Homo sapiens, UniProt Q9NZQ7); assay: HTRF PD-1-Ig/PD-L1-His binding assay (human PD-L1)
T2 construct: made in house; host or cells: HEK293T
Outline: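 Readout: time-resolved FRET between Eu cryptate-labeled anti-Ig (1 nM final) and APC-labeled anti-His (20 nM final) antibodies. These detect interaction of Fc-fused PD-1 with His-tagged human PD-L1 in dPBS containing 0.1% BSA and 0.05% Tween-20.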

[2] = cell binding assay, cell line not given, cluster symbol, read-out: CBA IC50 cluster
[3] = cluster symbol, read-out: HTRF IC50 cluster
[4] = cluster symbol, cell line of CBA not given (LK35.2-hPD-L1 or 293T-hPD-L1), read-out: CBA IC50 cluster

T2 sequence (Q9NZQ7 with tags, fused parts or gaps): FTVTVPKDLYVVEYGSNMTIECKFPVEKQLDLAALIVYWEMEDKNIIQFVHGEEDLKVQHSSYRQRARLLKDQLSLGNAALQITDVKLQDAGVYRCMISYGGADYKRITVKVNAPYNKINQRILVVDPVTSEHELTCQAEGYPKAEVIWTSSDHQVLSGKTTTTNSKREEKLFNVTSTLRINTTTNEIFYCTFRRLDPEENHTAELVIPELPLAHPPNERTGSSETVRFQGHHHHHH
T1 sequence (Q9NZQ7 19-290): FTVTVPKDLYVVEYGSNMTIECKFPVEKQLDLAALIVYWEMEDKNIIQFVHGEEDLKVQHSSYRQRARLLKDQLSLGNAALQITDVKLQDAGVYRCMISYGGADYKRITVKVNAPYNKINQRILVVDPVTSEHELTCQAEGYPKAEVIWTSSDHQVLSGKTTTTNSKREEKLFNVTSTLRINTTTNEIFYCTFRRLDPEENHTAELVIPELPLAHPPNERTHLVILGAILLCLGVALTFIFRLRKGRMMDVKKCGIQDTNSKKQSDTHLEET

Structure (SMILES) | IC50 [1, 2] [nM] | IC50 (Human PD-L1/PD-1; [3]) [nM] | IC50 [1, 4] [nM] | further results
CCCC[C@H]1C(=O)N(C)[C@@H](CCSC)C(=O)N[C@@H](CCCNC(=N)N)C(=O)NC(C(=O)NCC(N)=O)CSCC(=O)N[C@@H](Cc2ccc(O)cc2)C(=O)N(C)[C@@H](C)C(=O)N[C@@H](CC(N)=O)C(=O)N2CCC[C@H]2C(=O)N[C@@H](Cc2cnc[nH]2)C(=O)N[C@@H](CC(C)C)C(=O)N2C[C@H](O)C[C@H]2C(=O)N[C@@H](Cc2c[nH]c3ccccc23)C(=O)N[C@@H](CO)C(=O)N[C@@H](Cc2c[nH]c3ccccc23)C(=O)N1C (stereo partly shown) [Example 9024] | 0.158 to 4.71 | 0.385 to 6.74 | – | –
CCCC[C@H]1C(=O)N(C)[C@@H](CCCC)C(=O)NCC(=O)N[C@H](C(=O)NCC(N)=O)CSCC(=O)N[C@@H](Cc2ccc(O)cc2)C(=O)N(C)[C@@H](C)C(=O)N[C@@H](CC(N)=O)C(=O)N2CCC[C@H]2C(=O)N[C@@H](Cc2c[nH]cn2)C(=O)N[C@@H](CCC(N)=O)C(=O)N2C[C@H](O)C[C@H]2C(=O)N[C@@H](Cc2c[nH]c3ccccc23)C(=O)N[C@@H](CO)C(=O)N[C@@H](Cc2c[nH]c3ccccc23)C(=O)N1C [Example 5125] ({CH2CO}-Y[NMeA]NPHQ[Hyp]WSW[NMeNle][NMeNle]GCG-NH2; thioether N-14) | 4.78 to 72.9 | 0.385 to 6.74 | – | –
CCCC[C@H]1C(=O)N(C)[C@@H](CCCC)C(=O)N[C@@H](CCCNC(=N)N)C(=O)N[C@H](C(=O)NCC(N)=O)CSCC(=O)N[C@@H](Cc2ccccc2)C(=O)N(C)[C@@H](C)C(=O)N[C@@H](CC(N)=O)C(=O)N2CCC[C@H]2C(=O)N[C@@H](Cc2cnc[nH]2)C(=O)N[C@@H](CC(C)C)C(=O)N(C)CC(=O)N[C@@H](Cc2c[nH]c3ccccc23)C(=O)N[C@@H](CCCN)C(=O)N[C@@H](Cc2c[nH]c3ccccc23)C(=O)N1C [Example 1070] ({CH2CO}-F[NMeA]NPHL[Sar]W[Orn]W[NMeNle][NMeNle]RCG-NH2; thioether N-14) | – | 6.76 to 30.3 | 4.78 to 72.9 | –
CCCC[C@H]1C(=O)N(C)[C@@H](C)C(=O)N[C@@H](CCCNC(=N)N)C(=O)NC(C(=O)NCC(N)=O)CSCC(=O)N[C@@H](Cc2ccc(O)cc2)C(=O)N(C)[C@@H](C)C(=O)N[C@@H](CC(N)=O)C(=O)N2CCC[C@H]2C(=O)N[C@@H](Cc2cnc[nH]2)C(=O)N[C@@H](CC(C)C)C(=O)N2CCC[C@H]2C(=O)N[C@@H](Cc2c[nH]c3ccccc23)C(=O)N[C@@H](CO)C(=O)N[C@@H](Cc2csc3ccccc23)C(=O)N1C (stereo partly shown) [Example 9053] ({CH2CO}-Y[NMeA]NPHLPWS[Bta][NMeNle][NMeA]R[ξC]G-NH2; thioether N-14) | 4.78 to 72.9 | 6.76 to 30.3 | – | –
CCCC[C@H]1C(=O)N(C)[C@@H](CCCC)C(=O)N[C@@H](CCCNC(=N)N)C(=O)NC(C(=O)NCC(N)=O)CSCC(=O)N[C@@H](Cc2ccc(O)cc2)C(=O)N(C)[C@@H](C)C(=O)N[C@@H](CC(N)=O)C(=O)N2CCC[C@H]2C(=O)N[C@@H](CC(N)=O)C(=O)N[C@@H](CC(C)C)C(=O)N2CCC[C@H]2C(=O)N[C@@H](Cc2c[nH]c3ccccc23)C(=O)N[C@@H](CO)C(=O)N[C@@H](Cc2c[nH]c3ccccc23)C(=O)N1C (stereo partly shown) [Example 9059] ({CH2CO}-Y[NMeA]NPNLPWSW[NMeNle][NMeNle]R[ξC]G-NH2; thioether N-14) | 4.78 to 72.9 | 6.76 to 30.3 | – | –
CCCC[C@H]1C(=O)N(C)[C@@H](CCCC)C(=O)N[C@@H](CCC(=O)O)C(=O)N[C@H](C(=O)NCC(N)=O)CSCC(=O)N[C@@H](Cc2ccc(O)cc2)C(=O)N(C)[C@@H](C)C(=O)N[C@@H](CC(=O)O)C(=O)N2CCC[C@H]2C(=O)N[C@@H](Cc2c[nH]cn2)C(=O)N[C@@H](CCCN)C(=O)N2C[C@H](O)C[C@H]2C(=O)N[C@@H](Cc2c[nH]c3ccccc23)C(=O)N[C@@H](CCCCN)C(=O)N[C@@H](Cc2c[nH]c3ccccc23)C(=O)N1C [Example 5137] ({CH2CO}-Y[NMeA]DPH[Orn][Hyp]WKW[NMeNle][NMeNle]ECG-NH2; thioether N-14) | 0.158 to 4.71 | 0.385 to 6.74 | – | –
CCCC[C@H]1C(=O)N(C)CC(=O)N[C@@H](CC(=O)O)C(=O)N[C@@H](C(C)C)C(=O)N[C@@H](Cc2ccccc2Cl)C(=O)N[C@@H](Cc2ccc(O)cc2)C(=O)N(C)CC(=O)N[C@@H](Cc2c[nH]c3ccccc23)C(=O)N[C@@H](Cc2ccc(O)cc2)C(=O)N[C@@H](CC(C)C)C(=O)N[C@H](C(=O)NCC(N)=O)CSCC(=O)N[C@@H](Cc2ccccc2)C(=O)N(C)[C@@H](Cc2ccccc2)C(=O)N1C [Example 3132] ({CH2CO}-F[NMeF][NMeNle][Sar]DV[Phe(2-Cl)]Y[Sar]WYLCG-NH2; thioether N-13) | – | – | – | IC50 ([1]; cell line of CBA not given (LK35.2-hPD-L1 or 293T-hPD-L1), read-out: CBA IC50 value): 3780 nM; IC50 (Human PD-L1/PD-1; read-out: HTRF IC50 value): 2230 nM
CCCC[C@H]1C(=O)N(C)[C@@H](CCCC)C(=O)N[C@@H](CCCNC(=N)N)C(=O)N[C@H](C(=O)NCC(N)=O)CSCC(=O)N[C@@H](Cc2ccccc2)C(=O)N(C)[C@@H](C)C(=O)N[C@@H](CC(N)=O)C(=O)N2CCC[C@H]2C(=O)N[C@@H](Cc2cnc[nH]2)C(=O)N[C@@H](CC(C)C)C(=O)N(C)CC(=O)N[C@@H](Cc2ccc(-c3ccccc3)cc2)C(=O)N[C@@H](CO)C(=O)N[C@@H](Cc2c[nH]c3ccccc23)C(=O)N1C [Example 1007] ({CH2CO}-F[NMeA]NPHL[Sar][Bip]SW[NMeNle][NMeNle]RCG-NH2; thioether N-14) | – | > 30.5 | > 74.3 | –
CCCC[C@H]1C(=O)N(C)[C@@H](CCCC)C(=O)N[C@@H](CC(C)C)C(=O)N[C@H](C(=O)NCC(N)=O)CSCC(=O)N[C@@H](Cc2ccc(O)cc2)C(=O)N(C)[C@@H](C)C(=O)N[C@@H](CC(N)=O)C(=O)N2CCC[C@H]2C(=O)N[C@@H](Cc2c[nH]cn2)C(=O)N[C@@H](CCC(N)=O)C(=O)N2C[C@H](O)C[C@H]2C(=O)N[C@@H](Cc2c[nH]c3ccccc23)C(=O)NCC(=O)N[C@@H](Cc2c[nH]c3ccccc23)C(=O)N1C [Example 5109] ({CH2CO}-Y[NMeA]NPHQ[Hyp]WGW[NMeNle][NMeNle]LCG-NH2; thioether N-14) | 0.158 to 4.71 | 0.385 to 6.74 | – | –
CCCC[C@H]1C(=O)N(C)CC(=O)N[C@@H](CC(=O)O)C(=O)N[C@@H](C(C)C)C(=O)N(C)[C@@H](Cc2ccccc2)C(=O)N2C[C@H](N)C[C@H]2C(=O)N2CCC[C@@H]2C(=O)N[C@@H](Cc2c[nH]c3ccccc23)C(=O)N[C@@H](Cc2ccc(O)cc2)C(=O)N[C@@H](CC(C)C)C(=O)N[C@H](C(=O)NCC(N)=O)CSCC(=O)N[C@@H](Cc2ccccc2)C(=O)N(C)[C@@H](Cc2ccccc2)C(=O)N1C [Example 3178] ({CH2CO}-F[NMeF][NMeNle][Sar]DV[NMeF][Pro(4R-NH2)][dP]WYLCG-NH2; thioether N-13) | – | 6.76 to 30.3 | 4.78 to 72.9 | –
CCCC[C@H]1C(=O)N(C)[C@@H](CCCC)C(=O)N[C@@H](CO)C(=O)N[C@H](C(=O)NCC(N)=O)CSCC(=O)N[C@@H](Cc2ccc(O)cc2)C(=O)N(C)[C@@H](C)C(=O)N[C@@H](CC(N)=O)C(=O)N2CCC[C@H]2C(=O)N[C@@H](Cc2c[nH]cn2)C(=O)N[C@@H](CCC(N)=O)C(=O)N2C[C@H](O)C[C@H]2C(=O)N[C@@H](Cc2c[nH]c3ccccc23)C(=O)N[C@@H](CO)C(=O)N[C@@H](Cc2c[nH]c3ccccc23)C(=O)N1C [Example 5121] ({CH2CO}-Y[NMeA]NPHQ[Hyp]WSW[NMeNle][NMeNle]SCG-NH2; thioether N-14) | 4.78 to 72.9 | 6.76 to 30.3 | – | –
CCCC[C@H]1C(=O)N(C)[C@@H](CCCC)C(=O)N[C@@H](CCCNC(=N)N)C(=O)N[C@H](C(=O)NCC(N)=O)CSCC(=O)N[C@@H](Cc2ccc(Cl)cc2)C(=O)N(C)[C@@H](C)C(=O)N[C@@H](CC(N)=O)C(=O)N2CCC[C@H]2C(=O)N[C@@H](Cc2cnc[nH]2)C(=O)N[C@@H](CC(C)C)C(=O)N2CCC[C@H]2C(=O)N[C@@H](Cc2c[nH]c3ccccc23)C(=O)N[C@@H](CO)C(=O)N[C@@H](Cc2csc3ccccc23)C(=O)N1C [Example 1124] ({CH2CO}-[Phe(4-Cl)][NMeA]NPHLPWS[Bta][NMeNle][NMeNle]RCG-NH2; thioether N-14) | – | 6.76 to 30.3 | 4.78 to 72.9 | –
CCCC[C@H]1C(=O)N(C)[C@@H](CCCC)C(=O)N[C@@H](CCCNC(=N)N)C(=O)N[C@H](C(=O)NCC(N)=O)CSCC(=O)N[C@@H](CCCc2ccccc2)C(=O)N(C)[C@@H](C)C(=O)N[C@@H](CC(N)=O)C(=O)N2CCC[C@H]2C(=O)N[C@@H](Cc2cnc[nH]2)C(=O)N[C@@H](CC(C)C)C(=O)N2CCC[C@H]2C(=O)N[C@@H](Cc2c[nH]c3ccccc23)C(=O)N[C@@H](CO)C(=O)N[C@@H](Cc2c[nH]c3ccccc23)C(=O)N1C [Example 7018] ({CH2CO}-[hhPhe][NMeA]NPHLPWSW[NMeNle][NMeNle]RCG-NH2; thioether N-14) | – | – | – | IC50 ([1]; cell binding assay, cell line not given, value given instead of cluster, read-out: CBA IC50 value): 228 nM; IC50 (Human PD-L1/PD-1; value given instead of cluster, read-out: HTRF IC50 value): 13.6 nM
CCCC[C@H]1C(=O)N(C)CC(=O)N[C@@H](CC(=O)O)C(=O)N[C@@H](C(C)C)C(=O)N(C)[C@@H](Cc2ccccc2)C(=O)N[C@@H](Cc2ccc(O)cc2)C(=O)N(C)CC(=O)N[C@@H](Cc2c[nH]c3ccccc23)C(=O)N[C@@H](Cc2ccc(O)cc2)C(=O)N[C@@H](CC(C)C)C(=O)N[C@H](C(=O)NCC(N)=O)CSCC(=O)N[C@@H](Cc2ccccc2)C(=O)N(C)[C@@H](Cc2ccc(O)cc2)C(=O)N1C [Example 3059] (HELM PEPTIDE1{[O=C(C[*:3])[*:2]].F.[meY].[CCCC[C@@H](C(=O)[*:2])N(C)[*:1]].[Sar].D.V.[meF].Y.[Sar].W.Y.L.C.G.[am]}$PEPTIDE1,PEPTIDE1,1:R3-14:R3$$$V2.0) | – | 6.76 to 30.3 | 4.78 to 72.9 | –
